# Measurements: ChEMBL document CHEMBL1150317, “Discovery of aryl aminoquinazoline pyridones as potent, selective, and orally efficacious inhibitors of receptor tyrosine kinase c-Kit” (J Med Chem, 2008)
# Experiments:
# [1] = target: Cyclin-dependent kinase 2 (Homo sapiens) (UniProt P24941); assay: Inhibition of CDK2 at 1 uM relative to control
# [2] = target: Tyrosine-protein kinase Lck (Homo sapiens, UniProt P06239)
# Description: Inhibition of Lck by TR-FRET assay
# [3] = target: MAP kinase-activated protein kinase 2 (Homo sapiens) (UniProt P49137); assay: Inhibition of MAPKAPK2 at 1 uM relative to control
# Sequence of MAP kinase-activated protein kinase 2 (Homo sapiens) (P49137 whole entry, looked up): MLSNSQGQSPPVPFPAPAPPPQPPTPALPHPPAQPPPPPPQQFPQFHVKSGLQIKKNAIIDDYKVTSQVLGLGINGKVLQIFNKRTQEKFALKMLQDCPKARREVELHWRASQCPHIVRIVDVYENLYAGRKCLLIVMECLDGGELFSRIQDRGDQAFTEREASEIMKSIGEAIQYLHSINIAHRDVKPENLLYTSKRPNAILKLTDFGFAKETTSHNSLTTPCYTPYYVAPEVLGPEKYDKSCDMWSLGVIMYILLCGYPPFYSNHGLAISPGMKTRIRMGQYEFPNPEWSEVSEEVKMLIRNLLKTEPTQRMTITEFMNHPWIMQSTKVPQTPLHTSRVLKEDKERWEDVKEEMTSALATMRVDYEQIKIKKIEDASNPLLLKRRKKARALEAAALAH
# [4] = AUC (0 to t) in Sprague-Dawley rat at 10 mg/kg, po; format: ADME, organism-based; parameters: dose 10 mg/kg, route oral; settings: plasma
# [5] = target: Ribosomal protein S6 kinase alpha-5 (Homo sapiens) (UniProt O75582); assay: Inhibition of MSK1 at 1 uM relative to control
# Mus musculus = assay: Effect on SCF-induced mast cell activation in po dosed C57BL/6 mouse assessed as decrease in histamine release in blood; format: functional, organism-based; settings: C57BL/6, Blood
# [6] = target: Glycogen synthase kinase-3 beta (Homo sapiens) (UniProt P49841); assay: Inhibition of GSK3-beta at 1 uM relative to control
# [7] = target: Vascular endothelial growth factor receptor 2 (Homo sapiens, UniProt P35968)
# Description: Inhibition of KDR by TR-FRET assay
# [8] = target: Dual specificity mitogen-activated protein kinase kinase 4 (Homo sapiens) (UniProt P45985); assay: Inhibition of MKK4 at 1 uM relative to control
# Sequence of Dual specificity mitogen-activated protein kinase kinase 4 (Homo sapiens) (P45985 whole entry): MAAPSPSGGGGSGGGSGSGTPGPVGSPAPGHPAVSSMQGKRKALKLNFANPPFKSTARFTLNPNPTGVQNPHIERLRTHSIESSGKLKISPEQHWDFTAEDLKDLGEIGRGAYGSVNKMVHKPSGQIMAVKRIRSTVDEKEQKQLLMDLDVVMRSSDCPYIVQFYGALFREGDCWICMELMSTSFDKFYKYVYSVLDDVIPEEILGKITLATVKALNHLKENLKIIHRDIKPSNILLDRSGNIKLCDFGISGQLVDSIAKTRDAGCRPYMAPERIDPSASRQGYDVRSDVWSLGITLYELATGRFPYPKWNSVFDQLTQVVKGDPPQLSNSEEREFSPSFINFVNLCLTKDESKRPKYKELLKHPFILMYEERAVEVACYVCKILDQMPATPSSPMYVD
# [9] = target: Protein kinase C gamma type (Homo sapiens) (UniProt P05129); assay: Inhibition of PKCgamma at 1 uM relative to control
# [10] = target: Mitogen-activated protein kinase 1 (Homo sapiens) (UniProt P28482); assay: Inhibition of MAPK1 at 1 uM relative to control
# Sequence of Mitogen-activated protein kinase 1 (Homo sapiens) (P28482 whole entry): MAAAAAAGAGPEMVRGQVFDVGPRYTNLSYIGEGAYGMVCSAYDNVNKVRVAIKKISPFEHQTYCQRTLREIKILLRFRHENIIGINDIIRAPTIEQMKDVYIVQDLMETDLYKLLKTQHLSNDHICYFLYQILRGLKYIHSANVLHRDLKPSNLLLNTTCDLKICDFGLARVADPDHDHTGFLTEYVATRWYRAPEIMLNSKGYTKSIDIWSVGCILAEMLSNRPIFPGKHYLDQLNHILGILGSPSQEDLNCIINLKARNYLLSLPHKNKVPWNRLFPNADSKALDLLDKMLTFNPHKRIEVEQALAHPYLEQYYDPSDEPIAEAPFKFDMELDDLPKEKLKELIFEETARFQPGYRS
# [11] = target: Serine/threonine-protein kinase N2 (Homo sapiens) (UniProt Q16513); assay: Inhibition of PRK2 at 1 uM relative to control
# [12] = target: Ribosomal protein S6 kinase beta-1 (Homo sapiens) (UniProt P23443); assay: Inhibition of P70S6 at 1 uM relative to control
# Sequence of Ribosomal protein S6 kinase beta-1 (Homo sapiens) (P23443 whole entry, looked up): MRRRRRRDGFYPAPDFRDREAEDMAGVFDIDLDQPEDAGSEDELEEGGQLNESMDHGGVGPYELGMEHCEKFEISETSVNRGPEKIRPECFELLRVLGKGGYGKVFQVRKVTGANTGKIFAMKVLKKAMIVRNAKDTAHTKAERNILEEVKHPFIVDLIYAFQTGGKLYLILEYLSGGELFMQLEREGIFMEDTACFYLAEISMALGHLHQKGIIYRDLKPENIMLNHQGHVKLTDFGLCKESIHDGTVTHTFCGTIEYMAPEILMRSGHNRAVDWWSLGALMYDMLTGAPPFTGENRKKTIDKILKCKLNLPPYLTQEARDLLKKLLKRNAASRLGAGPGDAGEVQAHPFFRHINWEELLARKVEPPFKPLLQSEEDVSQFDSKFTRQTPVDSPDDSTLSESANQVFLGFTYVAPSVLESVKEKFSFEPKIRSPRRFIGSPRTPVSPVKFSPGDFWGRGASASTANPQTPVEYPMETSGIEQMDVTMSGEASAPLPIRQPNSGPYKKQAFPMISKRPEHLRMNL
# [13] = target: Tyrosine-protein kinase ABL1 (Homo sapiens, UniProt P00519); assay: Inhibition of Abl by TR-FRET assay
# [14] = target: Serine/threonine-protein kinase Sgk1 (Homo sapiens) (UniProt O00141); assay: Inhibition of SGK1 at 1 uM relative to control
# Sequence of Serine/threonine-protein kinase Sgk1 (Homo sapiens) (O00141 whole entry): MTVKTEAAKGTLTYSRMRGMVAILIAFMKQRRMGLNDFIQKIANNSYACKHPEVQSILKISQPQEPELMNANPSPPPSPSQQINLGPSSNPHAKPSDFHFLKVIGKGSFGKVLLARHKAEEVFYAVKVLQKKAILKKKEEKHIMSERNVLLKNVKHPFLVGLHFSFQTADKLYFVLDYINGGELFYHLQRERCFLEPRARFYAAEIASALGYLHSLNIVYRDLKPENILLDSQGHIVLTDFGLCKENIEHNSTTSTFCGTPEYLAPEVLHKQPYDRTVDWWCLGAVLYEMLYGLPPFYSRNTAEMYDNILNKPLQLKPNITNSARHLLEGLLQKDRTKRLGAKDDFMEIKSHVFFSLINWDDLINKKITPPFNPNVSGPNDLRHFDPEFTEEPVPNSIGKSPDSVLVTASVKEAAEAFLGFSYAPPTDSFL
# [15] = target: Protein kinase C alpha type (Homo sapiens) (UniProt P17252); assay: Inhibition of PKCalpha at 1 uM relative to control
# [16] = Half life in Sprague-Dawley rat at 10 mg/kg, po; format: ADME, organism-based; parameters: dose 10 mg/kg, route oral; settings: in vivo
# [17] = target: Mitogen-activated protein kinase 8 (Homo sapiens) (UniProt P45983); assay: Inhibition of JNK1 at 1 uM relative to control
# [18] = target: Dual specificity mitogen-activated protein kinase kinase 7 (Homo sapiens) (UniProt O14733); assay: Inhibition of MKK7 at 1 uM relative to control
# [19] = target: Mitogen-activated protein kinase 12 (Homo sapiens) (UniProt P53778); assay: Inhibition of p38-gamma at 1 uM relative to control
# [20] = target: Mitogen-activated protein kinase 13 (Homo sapiens) (UniProt O15264); assay: Inhibition of p38delta at 1 uM relative to control
# [21] = target: 5'-AMP-activated protein kinase subunit beta-1 (Homo sapiens) (UniProt Q9Y478); assay: Inhibition of AMPK at 1 uM relative to control
# Sequence of 5'-AMP-activated protein kinase subunit beta-1 (Homo sapiens) (Q9Y478 whole entry): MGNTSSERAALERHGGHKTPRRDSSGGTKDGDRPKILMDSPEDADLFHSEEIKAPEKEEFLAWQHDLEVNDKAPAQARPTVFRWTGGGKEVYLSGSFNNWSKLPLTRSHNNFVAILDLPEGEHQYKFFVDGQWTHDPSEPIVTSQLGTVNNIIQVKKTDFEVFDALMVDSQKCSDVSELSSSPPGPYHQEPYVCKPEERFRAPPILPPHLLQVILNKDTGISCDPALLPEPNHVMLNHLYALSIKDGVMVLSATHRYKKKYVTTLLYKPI
# [22] = target: Dual specificity mitogen-activated protein kinase kinase 1 (Homo sapiens) (UniProt Q02750); assay: Inhibition of MEK1 at 1 uM relative to control
# [23] = Inhibition of p38 by TR-FRET assay
# [24] = target: MAP kinase-activated protein kinase 5 (Homo sapiens) (UniProt Q8IW41); assay: Inhibition of PRAK at 1 uM relative to control
# [25] = Cmax in Sprague-Dawley rat at 10 mg/kg, po; format: ADME, organism-based; parameters: dose 10 mg/kg, route oral; settings: in vivo
# [26] = Inhibition of casein kinase 1 at 1 uM relative to control
# [27] = target: Calcium/calmodulin-dependent protein kinase type IV (Homo sapiens) (UniProt Q16566); assay: Inhibition of CAMK4 at 1 uM relative to control
# Plasma = assay: Protein binding in po dosed C57BL/6 mouse plasma by ultracentrifugation; format: ADME, organism-based; settings: in vivo
# [28] = target: Cyclin-dependent kinase 1 (Homo sapiens) (UniProt P06493); assay: Inhibition of CDK1 at 1 uM relative to control
# Sequence of Cyclin-dependent kinase 1 (Homo sapiens) (P06493 whole entry, looked up): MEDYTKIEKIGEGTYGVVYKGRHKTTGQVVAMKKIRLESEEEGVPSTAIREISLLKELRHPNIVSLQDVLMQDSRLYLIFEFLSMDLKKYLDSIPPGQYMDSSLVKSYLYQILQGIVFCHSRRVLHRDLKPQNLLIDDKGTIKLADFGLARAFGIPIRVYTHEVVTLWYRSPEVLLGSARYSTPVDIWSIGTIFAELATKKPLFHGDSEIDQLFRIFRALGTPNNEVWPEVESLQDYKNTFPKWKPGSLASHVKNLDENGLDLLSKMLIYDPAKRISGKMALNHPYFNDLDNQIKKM
# [29] = target: Rho-associated protein kinase 2 (Homo sapiens) (UniProt O75116); assay: Inhibition of ROCK2 at 1 uM relative to control
# [30] = target: Mitogen-activated protein kinase 10 (Homo sapiens) (UniProt P53779); assay: Inhibition of JNK3 at 1 uM relative to control
# Sequence of Mitogen-activated protein kinase 10 (Homo sapiens) (P53779 whole entry): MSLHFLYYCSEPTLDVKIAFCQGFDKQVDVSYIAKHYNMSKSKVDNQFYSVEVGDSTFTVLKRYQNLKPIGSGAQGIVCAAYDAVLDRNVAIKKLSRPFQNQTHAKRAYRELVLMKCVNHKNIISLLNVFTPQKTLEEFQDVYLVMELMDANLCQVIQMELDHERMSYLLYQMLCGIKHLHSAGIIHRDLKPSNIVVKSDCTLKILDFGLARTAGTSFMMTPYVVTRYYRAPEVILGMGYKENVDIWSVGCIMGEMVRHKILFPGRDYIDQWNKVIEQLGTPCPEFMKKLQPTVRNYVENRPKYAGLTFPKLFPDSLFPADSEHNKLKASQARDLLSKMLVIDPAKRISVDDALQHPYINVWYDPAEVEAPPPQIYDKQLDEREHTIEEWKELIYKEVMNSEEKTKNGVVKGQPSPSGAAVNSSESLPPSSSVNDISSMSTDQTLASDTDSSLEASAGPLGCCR
# [31] = Oral bioavailability in Sprague-Dawley rat at 10 mg/kg; format: ADME, organism-based; settings: in vivo
# [32] = target: Proto-oncogene tyrosine-protein kinase Src (Homo sapiens, UniProt P12931)
# Sequence of Proto-oncogene tyrosine-protein kinase Src (P12931 2-536 limits assumed): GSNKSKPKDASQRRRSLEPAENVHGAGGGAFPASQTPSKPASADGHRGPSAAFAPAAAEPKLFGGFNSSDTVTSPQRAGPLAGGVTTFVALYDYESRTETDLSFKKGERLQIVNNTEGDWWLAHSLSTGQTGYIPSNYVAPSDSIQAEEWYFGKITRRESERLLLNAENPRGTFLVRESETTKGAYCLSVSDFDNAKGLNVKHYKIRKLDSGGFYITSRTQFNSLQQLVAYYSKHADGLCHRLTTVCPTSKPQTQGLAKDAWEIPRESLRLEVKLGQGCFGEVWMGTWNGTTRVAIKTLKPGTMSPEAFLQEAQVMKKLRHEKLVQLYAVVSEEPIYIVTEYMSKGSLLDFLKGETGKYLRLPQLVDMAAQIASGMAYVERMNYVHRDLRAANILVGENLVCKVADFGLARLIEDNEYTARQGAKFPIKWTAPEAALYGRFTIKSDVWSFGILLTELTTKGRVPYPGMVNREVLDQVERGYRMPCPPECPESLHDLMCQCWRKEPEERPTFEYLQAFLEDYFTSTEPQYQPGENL
# Description: Inhibition of Src by TR-FRET assay
# [33] = target: Platelet-derived growth factor receptor alpha (Homo sapiens, UniProt P16234)
# Description: Inhibition of PDGFRalpha by TR-FRET assay
# [34] = Inhibition of PKAalpha at 1 uM relative to control
# [35] = target: RAC-alpha serine/threonine-protein kinase (Homo sapiens) (UniProt P31749); assay: Inhibition of PKBalpha at 1 uM relative to control
# [36] = Inhibition of casein kinase 2 at 1 uM relative to control
# [37] = Inhibition of CAMK2 at 1 uM relative to control
# [38] = Clearance in Sprague-Dawley rat at 1 mg/kg, iv; format: ADME, organism-based; parameters: dose 1 mg/kg, route intravenous; settings: in vivo
# [39] = target: Mitogen-activated protein kinase 14 (Homo sapiens) (UniProt Q16539); assay: Inhibition of p38alpha at 1 uM relative to control
# [40] = target: Tyrosine-protein kinase ZAP-70 (Homo sapiens) (UniProt P43403); assay: Inhibition of ZAP70 at 1 uM relative to control
# Sequence of Tyrosine-protein kinase ZAP-70 (Homo sapiens) (P43403 whole entry): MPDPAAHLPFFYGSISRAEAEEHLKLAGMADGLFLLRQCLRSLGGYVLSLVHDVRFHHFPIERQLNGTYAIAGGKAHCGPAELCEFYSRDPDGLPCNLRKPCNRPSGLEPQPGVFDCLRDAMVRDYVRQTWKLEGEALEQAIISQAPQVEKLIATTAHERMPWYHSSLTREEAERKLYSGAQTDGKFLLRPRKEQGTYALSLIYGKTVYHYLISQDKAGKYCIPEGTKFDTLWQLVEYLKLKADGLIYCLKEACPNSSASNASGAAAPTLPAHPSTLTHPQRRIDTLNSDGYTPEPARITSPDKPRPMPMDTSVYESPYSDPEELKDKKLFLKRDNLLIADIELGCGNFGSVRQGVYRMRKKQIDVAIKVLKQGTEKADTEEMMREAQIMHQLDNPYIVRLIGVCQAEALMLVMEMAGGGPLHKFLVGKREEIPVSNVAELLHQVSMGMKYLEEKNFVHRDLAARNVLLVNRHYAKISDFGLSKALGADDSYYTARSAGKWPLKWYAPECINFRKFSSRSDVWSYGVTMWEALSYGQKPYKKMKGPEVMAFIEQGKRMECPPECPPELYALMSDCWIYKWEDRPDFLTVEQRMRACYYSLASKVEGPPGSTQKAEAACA
# [41] = target: Dual specificity mitogen-activated protein kinase kinase 6 (Homo sapiens) (UniProt P52564); assay: Inhibition of MKK6 at 1 uM relative to control
# [42] = Volume of distribution at steady state in Sprague-Dawley rat at 1 mg/kg, iv; format: ADME, organism-based; parameters: dose 1 mg/kg, route intravenous; settings: in vivo, read-out: Vdss
# [43] = target: Mitogen-activated protein kinase 9 (Homo sapiens) (UniProt P45984); assay: Inhibition of JNK2 at 1 uM relative to control
# [44] = target: Mitogen-activated protein kinase 11 (Homo sapiens) (UniProt Q15759); assay: Inhibition of p38beta at 1 uM relative to control
# [45] = target: Mitogen-activated protein kinase 1 (Homo sapiens) (UniProt P28482); assay: Inhibition of MAPK2 at 1 uM relative to control
# [46] = target: Serine/threonine-protein kinase Chk1 (Homo sapiens) (UniProt O14757); assay: Inhibition of CHK1 at 1 uM relative to control
# [47] = target: Protein kinase C beta type (Homo sapiens) (UniProt P05771); assay: Inhibition of PKCbeta at 1 uM relative to control
# [48] = target: Serine/threonine-protein kinase Chk2 (Homo sapiens) (UniProt O96017); assay: Inhibition of CHK2 at 1 uM relative to control
# Sequence of Tyrosine-protein kinase Lck (P06239 whole entry): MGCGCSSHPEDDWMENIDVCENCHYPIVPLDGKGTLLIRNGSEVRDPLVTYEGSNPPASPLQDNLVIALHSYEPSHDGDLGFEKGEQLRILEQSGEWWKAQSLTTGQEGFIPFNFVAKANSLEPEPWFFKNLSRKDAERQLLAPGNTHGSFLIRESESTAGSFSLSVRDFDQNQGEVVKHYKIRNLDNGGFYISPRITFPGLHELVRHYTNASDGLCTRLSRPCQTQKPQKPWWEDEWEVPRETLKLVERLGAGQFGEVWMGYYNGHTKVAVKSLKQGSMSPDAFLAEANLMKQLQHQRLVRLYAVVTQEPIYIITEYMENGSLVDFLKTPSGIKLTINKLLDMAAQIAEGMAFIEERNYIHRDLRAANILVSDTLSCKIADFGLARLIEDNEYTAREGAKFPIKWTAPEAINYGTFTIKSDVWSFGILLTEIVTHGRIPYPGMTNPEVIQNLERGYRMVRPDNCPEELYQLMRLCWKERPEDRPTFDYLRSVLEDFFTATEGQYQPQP
smiles,measurement,setting,value
Cc1ccn(-c2cccc(C(F)(F)F)c2)c(=O)c1-c1ccc2nc(N)ncc2c1,inhibition,[1],50%
same,IC50,[2],1700 nM
same,inhibition,[3],> 50%
same,AUC(0-t),[4],1040 ng·h/mL
same,inhibition,[5],> 50%
same,EC50,Mus musculus,12.6 nM
same,ED50,Mus musculus; po,4.7 mg/kg
same,inhibition,[6],> 50%
same,IC50,[7],> 5000 nM
same,inhibition,[8],> 50%
same,inhibition,[9],> 50%
same,inhibition,[10],> 50%
same,inhibition,[11],> 50%
same,inhibition,[12],> 50%
same,IC50,[13],1400 nM
same,inhibition,[14],> 50%
same,inhibition,[15],> 50%
same,half-life,[16],1.83 h
same,inhibition,[17],> 50%
same,inhibition,[18],> 50%
same,inhibition,[19],> 50%
same,inhibition,[20],> 50%
same,inhibition,[21],> 50%
same,inhibition,[22],> 50%
same,IC50,[23],6100 nM
same,inhibition,[24],> 50%
same,Cmax,[25],253 ng/mL
same,inhibition,[26],> 50%
same,inhibition,[27],> 50%
same,Activity,Plasma,87.85%
same,inhibition,[28],> 50%
same,inhibition,[29],> 50%
same,inhibition,[30],> 50%
same,bioavailability,[31],25%
same,IC50,[32],860 nM
same,IC50,[33],9 nM
same,inhibition,[34],> 50%
same,inhibition,[35],> 50%
same,inhibition,[36],> 50%
same,inhibition,[37],50%
same,clearance,[38],41 mL/min/kg
same,inhibition,[39],> 50%
same,inhibition,[40],> 50%
same,inhibition,[41],> 50%
same,Vd,[42],4.12 L/kg
same,inhibition,[43],> 50%
same,inhibition,[44],> 50%
same,inhibition,[45],> 50%
same,inhibition,[46],> 50%
same,inhibition,[47],> 50%
same,inhibition,[48],> 50%
